Assays:
rat [1] = conditions: Subchronic oral toxicity in rodents, fischer, Feed, dose end: 13 week, group: systemic
rat [2] = conditions: Subchronic oral toxicity in rodents, fischer, Gavage/Intubation, dose end: 13 week, group: systemic
mouse [3] = conditions: Subchronic oral toxicity in rodents, b6c3f1, Gavage/Intubation, dose end: 13 week, group: systemic
rat [4] = conditions: Acute inhalation toxicity, fischer, Nose-Only, dose end: 28 day, group: systemic, systemic / pathology microscopic / nose / hyperplasia + systemic / pathology microscopic / nose / lesion(s) (nos) + systemic / pathology …
rat [5] = conditions: Sub-acute repeat dose toxicity, fischer, Oral, Gavage/Intubation, dose end: 16 day, group: systemic
mouse [6] = conditions: Carcinogenicity, b6c3f1, Oral, Gavage/Intubation, dose end: 103 week, group: systemic
rat [7] = conditions: Sub-acute repeat dose toxicity; fischer; Oral; Gavage/Intubation; dose end: 28 day; group: systemic; systemic / in life observation / mortality / mortality + systemic / organ weight / kidney / absolute + systemic / organ weight / kidney / …
rat [8] = conditions: Carcinogenicity; fischer; Oral; Gavage/Intubation; dose end: 103 week; group: systemic; systemic / pathology microscopic / liver / necrosis
mouse [9] = conditions: Sub-acute repeat dose toxicity; b6c3f1; Oral; Gavage/Intubation; dose end: 16 day; group: systemic; systemic / in life observation / mortality / mortality
rabbit = conditions: Prenatal developmental toxicity study, himalayan, Oral, Gavage/Intubation, dose end: 19 GD
rat [10] = conditions: Multigenerational reproductive toxicity study, wistar, Oral, Feed, dose end: 2 generation
rat [11] = conditions: Chronic toxicity, wistar, Oral, Feed, dose end: 728 day, group: systemic
rat [12] = conditions: Subchronic oral toxicity in rodents, wistar, Feed, dose end: 3 month, group: systemic, systemic / clinical chemistry / albumin / albumin + systemic / clinical chemistry / calcium / calcium + systemic / clinical chemistry / …
dog [13] = conditions: Chronic toxicity; beagle; Oral; Feed; dose end: 52 week; group: systemic; systemic / pathology microscopic / liver / hemosiderosis + systemic / pathology microscopic / spleen / hemosiderosis
rat [14] = conditions: Developmental neurotoxicity range-finding study; wistar; Oral; Gavage/Intubation; dose end: 21 PND; group: cannot be grouped; developmental / offspring survival late / [other] / [other] + systemic / in life observation / clinical signs / tremors
rat [15] = conditions: Combined chronic toxicity/carcinogenicity, sprague dawley, Oral, Feed, dose end: 104 week, group: systemic
mouse [16] = conditions: Combined chronic toxicity/carcinogenicity; other; Oral; Feed; dose end: 104 week; group: systemic; systemic / in life observation / body weight / body weight
dog [17] = conditions: Chronic toxicity, beagle, Oral, Feed, dose end: 52 week, group: systemic
rat [18] = conditions: Combined chronic toxicity/carcinogenicity; wistar; Oral; Feed; dose end: 24 month; group: systemic; systemic / in life observation / body weight / body weight + systemic / in life observation / body weight / body weight gain + systemic / in…
[19] = systemic / organ weight / kidney / nos + systemic / organ weight / liver / nos + systemic / pathology microscopic / liver / hypertrophy
[20] = systemic / organ weight / kidney / nos + systemic / organ weight / liver / nos + systemic / pathology microscopic / liver / hypertrophy + …
[21] = systemic / in life observation / mortality / mortality + systemic / organ weight / kidney / absolute + systemic / organ weight / kidney / …
[22] = systemic / pathology microscopic / liver / vacuolization cytoplasmic
[23] = systemic / organ weight / liver / relative to body weight
[24] = systemic / in life observation / clinical signs / labored respiration + systemic / in life observation / clinical signs / reduced activity…
[25] = systemic / pathology microscopic / kidney / carcinoma + systemic / pathology microscopic / stomach / hyperplasia
[26] = group: developmental, developmental / developmental malformation / bone / [other] + developmental / developmental malformation / bone / full supernumerary + …
[27] = group: maternal, systemic / in life observation / body weight / body weight gain + systemic / in life observation / food consumption / food consumption
[28] = group: offspring, developmental / developmental landmark / eye opening / eye opening
[29] = group: offspring, systemic / in life observation / body weight / offspring (pup) weight + systemic / in life observation / body weight / offspring (pup) …
[30] = group: parental, systemic / in life observation / body weight / body weight + systemic / in life observation / body weight / body weight gain + systemic / …
[31] = systemic / in life observation / body weight / body weight + systemic / in life observation / body weight / body weight gain + systemic / …
[32] = systemic / in life observation / food consumption / food consumption
[33] = systemic / in life observation / food consumption / food consumption + systemic / in life observation / body weight / body weight
[34] = systemic / in life observation / clinical signs / salivation
[35] = systemic / in life observation / clinical signs / salivation + systemic / in life observation / clinical signs / [other] + systemic / in …

## CC(O)CN(CC(C)O)CC(C)O.Nc1c(Cl)c(Cl)nc(C(=O)O)c1Cl (centres undefined) [Picloram triisopropanolamine salt]
Rat [1]; [19]
  LEL: 550 mg/kg/day
  LOAEL: 550 mg/kg/day
Rat [1]; [20]
  NEL: 90 mg/kg/day
  NOAEL: 90 mg/kg/day

## O=Cc1ccco1 [Furfural]
Rat [2]; [21]
  LOAEL: > 180 mg/kg/day
  NOAEL: ≥ 180 mg/kg/day
Rat [2]; [22]
  LEL: 11 mg/kg/day
  NEL: < 11 mg/kg/day
Mouse [3]; [23]
  LEL: 75 mg/kg/day
  NEL: < 75 mg/kg/day
Mouse [3]; systemic / pathology microscopic / liver / inflammation + systemic / pathology microscopic / liver / necrosis
  LOAEL: 150 mg/kg/day
Mouse [3]; systemic / pathology microscopic / liver / inflammation + systemic / pathology microscopic / liver / necrosis + systemic / in life …
  NOAEL: 75 mg/kg/day
Rat [4]
  LEL: 6 mg/kg/day
  LOAEL: > 368 mg/kg/day
  NEL: < 6 mg/kg/day
  NOAEL: ≥ 368 mg/kg/day
Rat [5]; [24]
  LOAEL: > 240 mg/kg/day
  NEL: 60 mg/kg/day
  NOAEL: ≥ 240 mg/kg/day
Rat [5]; systemic / in life observation / clinical signs / reduced activity
  LEL: 120 mg/kg/day
Mouse [6]; [25]
  LEL: 50 mg/kg/day
  NEL: < 50 mg/kg/day
Mouse [6]; systemic / pathology microscopic / liver / inflammation + systemic / pathology microscopic / liver / pigmentation
  LOAEL: 100 mg/kg/day
Mouse [6]; systemic / pathology microscopic / liver / inflammation + systemic / pathology microscopic / liver / pigmentation + systemic / pathology …
  NOAEL: 50 mg/kg/day
Rat [7]
  LEL: 192 mg/kg/day
  LOAEL: 192 mg/kg/day
  NEL: 96 mg/kg/day
  NOAEL: 96 mg/kg/day
Rat [8]
  LEL: 30 mg/kg/day
  LOAEL: 30 mg/kg/day
  NEL: < 30 mg/kg/day
  NOAEL: < 30 mg/kg/day
Mouse [9]
  LEL: 400 mg/kg/day
  LOAEL: > 400 mg/kg/day
  NEL: 200 mg/kg/day
  NOAEL: ≥ 400 mg/kg/day

## C[N+]1(C)CCCCC1.[Cl-] [Mepiquat chloride]
rabbit; [26]
  LEL: 100 mg/kg/day
  LOAEL: 100 mg/kg/day
  NEL: 50 mg/kg/day
  NOAEL: 50 mg/kg/day
rabbit; [27]
  LEL: 100 mg/kg/day
  LOAEL: 100 mg/kg/day
  NEL: 50 mg/kg/day
  NOAEL: 50 mg/kg/day
Rat [10]; [28]
  LEL: 48.6 mg/kg/day
  NEL: < 48.6 mg/kg/day
Rat [10]; [29]
  LOAEL: 574 mg/kg/day
  NOAEL: 147 mg/kg/day
Rat [10]; group: parental, systemic / in life observation / body weight / body weight + systemic / in life observation / body weight / body weight gain
  LOAEL: 499 mg/kg/day
Rat [10]; [30]
  LEL: 499 mg/kg/day
  NEL: 153 mg/kg/day
  NOAEL: 153 mg/kg/day
Rat [11]; [31]
  LOAEL: 268 mg/kg/day
  NEL: 13 mg/kg/day
  NOAEL: 106 mg/kg/day
Rat [11]; [32]
  LEL: 106 mg/kg/day
Rat [12]
  LEL: 826 mg/kg/day
  LOAEL: 826 mg/kg/day
  NEL: < 826 mg/kg/day
  NOAEL: < 826 mg/kg/day
Dog [13]
  LEL: 58.4 mg/kg/day
  LOAEL: > 58.4 mg/kg/day
  NEL: 19.9 mg/kg/day
  NOAEL: ≥ 58.4 mg/kg/day
Rat [14]
  LEL: 75 mg/kg/day
  LOAEL: 75 mg/kg/day
  NEL: < 75 mg/kg/day
  NOAEL: < 75 mg/kg/day
Rat [15]; [32]
  LEL: 186 mg/kg/day
  LOAEL: 186 mg/kg/day
Rat [15]; [33]
  NEL: 62.4 mg/kg/day
  NOAEL: 62.4 mg/kg/day
Mouse [16]
  LEL: 169 mg/kg/day
  LOAEL: > 514 mg/kg/day
  NEL: 48.9 mg/kg/day
  NOAEL: ≥ 514 mg/kg/day
Dog [17]; [34]
  LOAEL: 170 mg/kg/day
  NOAEL: < 170 mg/kg/day
Dog [17]; [35]
  LEL: 170 mg/kg/day
  NEL: < 170 mg/kg/day
Rat [18]
  LEL: 269 mg/kg/day
  LOAEL: 269 mg/kg/day
  NEL: 105 mg/kg/day
  NOAEL: 105 mg/kg/day
